In US20060286561A1, “PROPARGYLETHOXYAMINO NUCLEOTIDES” (Applera Corporation; Applied Biosystems Group, priority 1996, published 2006):

Experiments:
Format in all cases: biochemical
[1] = target: T1, AmpliTaq DNA Polymerase, FS (Thermus aquaticus, UniProt P19821, F667Y/G46D); assay: Terminator Titration Assay (dye-terminator cycle sequencing reaction); settings: for Relative Molar Excess Terminator Required: to form a full sequencing ladder
T1 construct: purchased PE Applied Biosystems p/n 402117
T1 sequence (P19821 whole entry G46D/F667Y): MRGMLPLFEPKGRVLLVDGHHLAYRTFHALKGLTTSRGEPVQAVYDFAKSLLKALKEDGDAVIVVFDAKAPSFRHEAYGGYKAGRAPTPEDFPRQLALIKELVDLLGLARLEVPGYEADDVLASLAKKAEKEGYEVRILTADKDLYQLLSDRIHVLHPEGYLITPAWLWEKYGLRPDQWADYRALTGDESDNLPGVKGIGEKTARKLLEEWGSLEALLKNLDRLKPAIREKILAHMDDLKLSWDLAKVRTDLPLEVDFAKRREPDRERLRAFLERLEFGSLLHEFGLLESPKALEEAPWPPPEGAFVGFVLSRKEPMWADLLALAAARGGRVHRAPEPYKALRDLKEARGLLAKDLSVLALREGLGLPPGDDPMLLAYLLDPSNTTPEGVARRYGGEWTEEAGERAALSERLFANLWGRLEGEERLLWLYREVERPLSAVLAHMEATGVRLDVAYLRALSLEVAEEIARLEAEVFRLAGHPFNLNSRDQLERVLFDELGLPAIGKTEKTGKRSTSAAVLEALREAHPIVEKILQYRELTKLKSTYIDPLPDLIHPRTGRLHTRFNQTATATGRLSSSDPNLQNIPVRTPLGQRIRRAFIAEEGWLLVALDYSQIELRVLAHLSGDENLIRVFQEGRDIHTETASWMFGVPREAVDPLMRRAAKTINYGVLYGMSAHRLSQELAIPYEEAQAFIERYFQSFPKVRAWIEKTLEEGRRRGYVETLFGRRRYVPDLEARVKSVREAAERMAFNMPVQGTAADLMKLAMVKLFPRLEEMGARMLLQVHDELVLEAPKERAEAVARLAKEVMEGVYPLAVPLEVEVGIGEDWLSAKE
From the text: The Terminator Titration Assay was used to determine the minimum amount of dye terminator required to create a full sequencing ladder, i.e., a sequencing ladder including all fragments terminating in a particular base having a length of between about 20 to about 600 nucleotides. The key components of the assay were (i) a primer labeled with a first dye, and (i) a terminator labeled with a second dye spectrally resolvable from the first dye. In the assay, when an insufficient concentration of dye terminator was added to the sequencing reaction, no dideoxy-terminated fragments were formed, and all that was seen on the sequencing gel were products formed by “false stops” that were labeled with the first dye only. As used herein the term “false stops” refer to primer extension products not terminating in a dideoxy terminator, such products probably being formed when the polymerase enzyme spontaneously disengages with the template strand. When too much terminator was used, only short termination products were formed, i.e., less than about 50 nucleotides in length, such products including both the first and second dyes. When the proper amount of terminator was used, a full sequencing ladder was produced, each fragment of the ladder being labeled with both the first and second dyes.
The dye-terminator reactions were performed using AmpliTaq DNA Polymerase, FS following protocols provided in the ABI PRISM™ Dye Terminator Cycle Sequencing Core Kit Manual (PE Applied Biosystems p/n 402116). (The FS enzyme is a recombinant Thermus aquaticus DNA polymerase having two point mutations--G46D and F667Y). All reagents except the dNTP mix, dye labeled primers, and dye-labeled terminators were from an ABI PRISM™ Dye Terminator Core Kit (PE Applied Biosystems p/n 402117). The dNTP mix consisted of 2 mM each of dATP, dCTP, dGTP and dTTP. A premix of reaction components was prepared as shown in the following table wherein all quantities are given on a per reaction basis:
Reactions were assembled in 0.5 ml tubes adapted for the Perkin-Elmer 480 DNA Thermal Cycler (PE Applied Biosystems p/n N801-100). Reaction volumes were 20 μL, including 15 μL, of the above reaction premix, a variable amount of dye labeled terminator, and a sufficient volume of water to bring the total reaction volume up to 20 μL. From 1 to 1000 pmol of the dye terminator was added to each reaction. 30 μL of mineral oil was added to the top of each reaction to prevent evaporation. Reactions were thermocycled as follows: 96° C. for 30 sec, 50° C. for 15 sec, and 60° C. for 4 min, for 25 cycles; followed by a 4° C. hold cycle.
All reactions were purified by spin-column purification on Centri-Sep spin columns according to manufacturer's instructions (Princeton Separations p/n CS-901). Gel material in the column was hydrated with 0.8 mL deionized water for at least 30 minutes at room temperature. After the column was hydrated and it was determined that no bubbles were trapped in the gel material, the upper and lower end caps of the column were removed, and the column was allowed to drain by gravity. The column was then inserted into the wash tubes provided in the kit and centrifuged in a variable speed microcentrifuge at 1300×g for 2 minutes, removed from the wash tube, and inserted into a sample collection tube. The reaction mixture was carefully removed from under the oil and loaded onto the gel material. Columns were centrifuged in a variable speed microcentrifuge at 1300×g for 2 minutes. Eluted samples were then dried in a vacuum centrifuge.
Prior to loading onto a sequencing gel, the dried samples were resuspended in 25 μL of Template Suppression Reagent (PE Applied Biosystems p/n 401674), vortexed, heated to 95° C. for 2 minutes, cooled on ice, vortexed again, and centrifuged (13,000×g). 10 μL of the resuspended sample was aliquoted into sample vials (PE Applied Biosystems p/n 401957) adapted for the PE ABI PRISM™ 310 Genetic Analyzer (PE Applied Biosystems p/n 310-00-100/120). […]

[2] = target: AmpliTaq FS Polymerase (mutant form of Taq DNA polymerase) (Thermus aquaticus, UniProt P19821, F667Y/G46D); assay: Single-Nucleotide Incorporation Assay for relative enzyme selectivity; settings: for ddCTP/(Dye)-ddCTP (ratio of incorporation rates, preference for unlabeled ddCTP): ddCTP and dye-ddCTP each 200 μM, 8 nM enzyme, 60° C., corrected for energy transfer
Chain of AmpliTaq FS Polymerase (mutant form of Taq DNA polymerase) (P19821 whole entry G46D/F667Y): as above
From the text: In the assay, an unlabeled terminator and its cognate dye-labeled terminator are present in equal concentrations and allowed to compete for the same polymerase-substrate binding site under enzyme limited (steady-state) conditions.
With reference to FIG. 3, the components of the assay include a 36 nucleotide template (5); a 25 nucleotide primer (10) having a sequence complementary to the template and a first fluorescent label at the 5′-end (15); an unlabeled terminator (20); a dye-labeled terminator (25) having a second fluorescent label attached thereto (30) which is spectrally resolvable from the first fluorescent label; and a polymerase enzyme. In the present example, the unlabeled terminator was 2′,3′-ddCTP and the dye-labeled terminator was 6-(FAM)-ddCTP where different linker arms were used to attach the dye to the nucleotide. The template DNA contained a single G (35) at the template position following the end of the primer.
Products (40) and (45) were detected by resolving them electrophoretically and detecting the resulting bands using an ABI PRISM™ 373 DNA Sequencer (PE Applied Biosystems). A typical banding pattern consisted of a 25-mer band corresponding to the labeled primer (10), a 26-mer band corresponding to the product (40) and an “apparent 27-mer” which corresponded to product (45). The apparent extra base seen in product (45) is a result of the effect of the dye-labeled terminator on the electrophoretic mobility of the fragment. By taking samples from a reaction mixture and measuring the relative amounts of DNA in the 25-mer, 26-mer, and apparent 27-mer bands as a function of time, it was possible to measure the relative incorporation rates of the unlabeled and dye-labeled terminators in the reaction. […] In this manner, it was possible to measure the effect of linker structure on dye-terminator incorporation.
For the case of product (45), it is necessary to correct the fluorescence signal for fluorescence energy transfer which takes place between the first fluorescent label (15) located at the 5′-end of product (45), TAMRA in this example, and the second fluorescent label (30) located on the terminator positioned at the 3′-end of product (45), FAM in this example. Under the conditions used for detection, the presence of the 3′-FAM label serves to enhance the signal resulting from the TAMRA label. The energy-transfer correction is accomplished by synthesizing a doubly labeled internal standard molecule having the same structure as product (45), preparing a control sample containing equal moles of the 5′-TAMRA labeled primer (10) and the doubly labeled internal standard molecule, and running the control sample in a control lane on the same gel as assay products (40) and (45). Any difference in TAMRA fluorescence between the primer (10) and the doubly labeled internal standard is a quantitative measure of the extent of energy transfer between the dye moieties in the assay product (45). […] This measurement was used to correct the TAMRA fluorescence from the product (45) in each of the test sample lanes.
(The numbers in parenthesis next to certain components refer to elements in FIG. 3.)
The assay reactions were prepared as follows. Two 2×-concentrated “Half Reaction Mixtures” were prepared and held on ice. A first solution, the “2× Enz·DNA” mixture, comprised […] template/primer DNA and […] AmpliTaq FS in 80 mM TRIS buffer. A second solution, the “2× Mg·Nuc” mixture, comprised 80 mM TRIS buffer plus 4.8 mM MgCl2 and each of the nucleotides at 400 μM. A “Zero Time Control” sample was prepared by adding 1 μl of the 2× Enz-DNA mixture to 25 μl of “STOP Solution” (0.5 M EDTA, […]), and, after mixing, adding 1 μl of the 2× Mg·Nuc mixture. The Zero Time Control sample was held on ice until the remainder of the timed samples were also collected for further processing. […]

[3] = target: T1, AmpliTaq DNA Polymerase, FS; assay: Terminator Titration Assay (dye-terminator cycle sequencing reaction); settings: for mean peak height / relative error of peak height (standard deviation / mean): FIG. 2, at optimal terminator concentration; for relative error of peak height (standard deviation / mean): lower = more even peak heights; for optimal concentration of terminator: FIG. 2, sequencing pattern comparison
[4] = C-terminator linked to 6-FAM dye, unlabeled dideoxy terminator = 1
[5] = C-terminator, various combinations of dyes and linkers, unlabeled terminator = 1

Row | SMILES | Relative Molar Excess Terminator Required [1, 4] | increase of bias against dye-ddCTP versus propargylamido linker ([2]; FAM-ddCTP, from 65× to 110×) | ddCTP/(Dye)-ddCTP (ratio of incorporation rates, preference for unlabeled ddCTP) [2] [×] | ddCTP/(Dye)-ddCTP (ratio of incorporation rates, preference for unlabeled ddCTP) ([2]; listed as FAM-ddCTP (propargyl-2-ethoxyamido linker)) [×] | mean peak height [3] | relative error of peak height (standard deviation / mean) [3] | optimal concentration of terminator [3] [pmol] | Relative Molar Excess Terminator Required [1, 5] | ddCTP/(Dye)-ddCTP (ratio of incorporation rates, preference for unlabeled ddCTP) ([2]; listed as FAM-ddCTP (propargylamido linker)) [×] | reduced molar excess as compared with terminators employing the propargylamido linker ([1]; C-terminator) | reduced molar excess as compared with terminators employing a propargyl-2-ethoxyamido linker ([1]; C-terminator linked to 6-FAM) | ddCTP/(Dye)-ddCTP (ratio of incorporation rates, preference for unlabeled ddCTP) ([2]; listed as FAM-ddCTP (propargyl-1-ethoxyamido linker)) [×]
1 | Nc1nc(=O)n(C2CCC(COP(=O)(O)OP(=O)(O)OP(=O)(O)O)O2)cc1C#CCOCCOCCNC(=O)c1ccc2c(c1)C(=O)OC21c2ccc(O)cc2Oc2cc(O)ccc21 (stereo not shown) [(6-FAM)-propargyl-2-ethoxyamido-C] | 45 | about 2 fold | 110 | 110 | – | – | – | – | – | – | – | –
2 | Nc1nc(=O)n(C2CCC(COP(=O)(O)OP(=O)(O)OP(=O)(O)O)O2)cc1C#CCNC(=O)c1ccc2c(c1)C(=O)OC21c2ccc(O)cc2Oc2cc(O)ccc21 (stereo not shown) [(6-FAM)-propargylamido-C, reference compound] | 55 | – | 65 | – | 1800 | 0.533 | 250 | 55 | 65 | – | – | –
3 | Nc1nc(=O)n(C2CCC(COP(=O)(O)OP(=O)(O)OP(=O)(O)O)O2)cc1C#CCOCCNC(=O)c1ccc2c(c1)C(=O)OC21c2ccc(O)cc2Oc2cc(O)ccc21 (stereo not shown) [(6-FAM)-propargyl-1-ethoxyamido-C] | 9 | – | 19 | – | 504 | 0.436 | 50 | 9 | – | six-fold | five-fold | 19
4 | Nc1ccn([C@H]2CC[C@@H](COP(=O)(O)OP(=O)(O)OP(=O)(O)O)O2)c(=O)n1 [Unlabeled terminator, 2′,3′-ddCTP, reference compound] | 1 | – | – | – | – | – | – | 1 | – | – | – | –
